In PubChem BioAssay AID179 (DTP/NCI, 2004):
Values joined by “and” are separate entries in the source; they are usually repeats but may differ in a detail not shown here. Equal values may be shown once. Active and inactive are the calls of the source.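 How the source made its calls: active means compounds giving half or more protection of infected cells from virus-caused growth loss, again on retest; inactive means the rest.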 Where a SMILES comes first, the peptide text is derived from it. The star is where a group is joined. Cbz = O=C(OCc1ccccc1)*

Tested on: CEM cells HIV-1 protection, formazan growth assay
Assay: NCI AIDS Antiviral Assay
Conditions: for IC50: measured here: growth of uninfected CEM cells
Method in brief: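 CEM (human) cells, HIV-1 infected vs uninfected, 5-point dosing, formazan growth read-out. Retest threshold 50% protection.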

| SMILES | outcome | EC50 [µM] | IC50 |
| --- | --- | --- | --- |
| O=C(O)/C(Cl)=C(\Cl)C(=O)NC1C2CC3CC(C2)CC1C3 (stereo not drawn) | inactive |  |  |
| COc1nc(NC2OC(CO)C(O)C(O)C2O)cc(=O)[nH]1 (stereo not drawn) | inactive |  |  |
| Nc1ncnc2c1N=CN(Oc1ccccc1)N2 | inactive |  |  |
| N#CC1=C2Oc3ccccc3N2C(c2ccc(Cl)cc2)C(C#N)=C1N (stereo not drawn) |  | > 200 | 36.3 µM |
| COC1=C(C)C(=O)C(=O)c2cccnc21 | inactive |  |  |
| O=C1CN(Cc2ccccc2)CC(=O)N2Cc3ccccc3CN12 | inactive |  |  |
| CCOC(=O)c1nc2ccc(C(F)(F)F)cc2nc1NCc1ccc(F)cc1 |  | > 200 | 23.4 µM |
| CCCCc1c2c(nc3c1CCCC3O)CCCC2 (stereo not drawn) |  | > 200 | 81.3 µM |
| Cn1c(/C=C(\O)c2ccc(Cl)cc2)nc2ccccc21 |  | > 91.2 | > 91.2 µM |
| COc1ccc(Cc2c[n+](C)cc3cc(N=O)c(OC)cc23)cc1O |  | > 200 | > 200 µM |
| CC(=O)c1ccc(NC(=O)C(=O)Nn2c(=S)[nH]c3ccccc3c2=O)cc1 |  | > 93.3 | > 93.3 µM |
| COc1cc2cccc(N=Cc3c(Br)ccc(OC)c3OC(C)C)c2cc1OC |  | > 3.16 | > 3.16 µM |
| CN(C)c1ccc(/C=C2/NC(=S)NC2=O)cc1 |  | > 200 | 20 µM |
| Cc1sc(N=Nc2c(O)[nH]c3ccccc23)nc1-c1ccccc1 |  | > 200 | 43.7 µM |
| O=C(C[N+]12CC=C(CO)C1C(O)CC2)c1ccc(Br)cc1 (stereo not drawn) |  | > 575 | > 575 µM |
| CC(=O)C(N=Nc1nc2ccccc2[nH]1)C(C)=O |  | > 200 | 20 µM |
| OC1C[C@H](c2ccccc2)C2(C(O)c3ccccc3C2O)[C@@H](c2ccccc2)C1 (stereo partly drawn) |  | > 200 | 89.1 µM |
| C[n+]1c(-c2ccc(/C=N/Nc3ccnc(N/N=C/c4ccc(-c5cn6ccccc6[n+]5C)cc4)n3)cc2)cn2ccccc21 |  | 4.68 | 9.77 µM |
| O=c1c2cc(Br)ccc2[nH]c(=S)n1-c1ccccc1 |  | > 40.7 | > 40.7 µM |
| Cc1cc(C)nc(NS(=O)(=O)c2ccc(Nc3c4ccc(Cl)cc4nc4c(C(=O)Nc5ccc(S(N)(=O)=O)cc5)cccc34)cc2)n1 |  | > 52.5 | 42.7 µM |
| Clc1ccc(CSc2ccc3nncc(SCc4ccc(Cl)c(Cl)c4)c3c2)cc1Cl |  | > 41.7 | 37.2 µM |
| Cn1c(=O)oc2ccc(S(=O)(=O)Nc3ccc(Cl)cc3[N+](=O)[O-])cc21 |  | > 200 | 28.2 µM |

| SMILES | outcome | EC50 [µM] | IC50 |
| --- | --- | --- | --- |
| CCOC(=O)CCC(NC(=O)CNC(=O)CNC(=O)C(CCC(=O)OCC)NC(=O)C(CCC(=O)OCC)NC(=O)C(CCC(=O)OCC)NC(=O)OCc1ccccc1)C(=O)NC(CCC(=O)OCC)C(=O)NC(CCC(=O)OCC)C(=O)OCC (stereo not drawn) (Cbz-E(OEt)E(OEt)E(OEt)GGE(OEt)E(OEt)E(OEt)-OEt; configuration not given here) |  | > 200 | > 200 µM |
| O=[N+]([O-])c1ccc(C2CC(c3ccccc3)=Nc3ccccc3S2)cc1 (stereo not drawn) |  | > 35.5 | 5.75 µM |
| S=C(SSSC(=S)N(C1CCCCC1)C1CCCCC1)N(C1CCCCC1)C1CCCCC1 | inactive |  |  |
| COC(=O)c1cc(O)ccc1NC(=O)c1ccc(O)cc1 |  | > 912 | 363 µM |
| c1c2c(cc(-n3nnc4c3CCCCCC4)c1-n1nnc3c1CCCCCC3)CCCCCC2 |  | > 21.9 | > 21.9 µM |
| Cc1cc(OCC(=O)N/N=C/C(Br)=C/c2ccccc2)nc(SCC(=O)N/N=C/C(Br)=C/c2ccccc2)n1 |  | > 200 | 17.8 µM |
| CCCCN1C(=O)C(NC(C)=O)C1COC(C)(C)C (stereo not drawn) |  | > 479 | > 479 µM |
| COc1ccccc1OS(=O)(=O)c1ccc(C)cc1 | inactive |  |  |
| Cn1c(=O)c2c(nc3n(Cc4ccccc4)c(=O)c(NCCBr)cn23)n(C)c1=O |  | > 126 | 49 µM |
| CCc1cccc(CC)c1NC(=O)C1=C(C)NC(C)=C(C(=O)Nc2c(CC)cccc2CC)C1c1ccc2c(c1)OCO2 |  | > 44.7 | 23.4 µM |
| COC(=O)C(Cc1ccccc1)NP(=O)(O)OCC1OC(n2cc(Br)c(=O)[nH]c2=O)CC1O (stereo not drawn) |  | > 200 | > 200 µM |
| CC(C)NC1CCCCC2c3cc(F)ccc3[C@]12O (stereo partly drawn) |  | 60.3 | > 200 µM |
| O=C1CC(CC(O)C2CCCCC2O)CC(=O)N1 (stereo not drawn) |  | > 200 | > 200 µM |
| Cc1[nH]c(=O)c2oc3cc4ccccc4cc3c2c1C(=O)O |  | > 200 | > 200 µM |
| CCOC(=O)c1ccc(NC(=O)c2cccc3c(Nc4ccc(S(=O)(=O)Nc5cc(C)on5)cc4)c4ccccc4nc23)cc1 |  | > 200 | 4.57 µM |
| CC1=CCC[C@H]2[C@](C)(CC3=CC(=O)C(Sc4ccccc4)=CC3=O)[C@@H](C)CC[C@]12C |  | > 200 | 1.32 µM |
| NNC(=O)c1ccncc1 |  | > 200 | > 200 µM |
| CC(=O)NC(CCC(=O)c1ccc(Cl)cc1Cl)C(=O)O (stereo not drawn) |  | > 200 | > 200 µM |
| CSc1cc(-c2ccccn2)nc(-c2ccccn2)c1 |  | > 2 | 0.269 µM |
| COc1ccc(-c2oc3c(Cl)cc(Cl)cc3c(=O)c2O)cc1OC |  | > 200 | > 200 µM |
| CCCCCCCCC1=C(OC)C(=O)c2c(C)ccnc2C1=O | inactive |  |  |
| CC(=O)NNc1nc(C)c(C(=O)NNC(=O)C(=O)Nc2nc3ccc([N+](=O)[O-])cc3s2)s1 |  | > 141 | 33.1 µM |

| SMILES | outcome | EC50 [µM] | IC50 |
| --- | --- | --- | --- |
| Cc1nc(C(N)=S)sc1C(=O)C/C(=N/N)C(=O)Nc1cccc(Cl)c1C |  | > 166 | > 166 µM |
| COc1cccc(C(NC2=NCCC=N2)c2cc3c(cc2O)OCO3)c1O (stereo not drawn) |  | > 200 | 35.5 µM |
| CCC(C)(C)NS(=O)(=O)c1ccccc1 | inactive |  |  |
| O=C(Nc1ccc(S(=O)(=O)c2ccc(NS(=O)(=O)Cc3ccccc3[N+](=O)[O-])cc2)cc1)c1ccccc1SSc1ccccc1C(=O)Nc1ccc(S(=O)(=O)c2ccc(NS(=O)(=O)Cc3ccccc3[N+](=O)[O-])cc2)cc1 |  | 28.2 | > 200 µM |
| N.N.N.N.O=C([O-])C(Cl)Cl.O=C([O-])C(Cl)Cl.[Co+3].[O-][Cl+3]([O-])([O-])[O-] | inactive |  |  |
| CCOC(=O)NC(=O)c1cn(CCCCCCCCCCC(=O)N2CCN(CCn3cc(C(=O)NC(=O)OCC)c(=O)[nH]c3=O)CC2)c(=O)[nH]c1=O | inactive |  |  |
| CCC(=O)/C=C/c1ccccc1 |  | > 200 | 93.3 µM |
| CN(C)/N=C(/SS/C(=N/N(C)C)C(F)(F)F)C(F)(F)F | inactive |  |  |
| CCCCC(C)CCCC1=C(O)C(CC(=O)O)OC1=O (stereo not drawn) |  | > 87.1 | > 87.1 µM |
| COC(=O)C(=O)C(C(=O)OC)C(=O)C(=O)Nc1cc(Cl)c(Cl)cc1Cl (stereo not drawn) |  | > 17.4 | > 17.4 µM |
| CCCCn1cnc2c(SSc3ncnc4c3ncn4CCCC)ncnc21 |  | > 200 | 10.7 µM |
| COC(=O)/C(=C\Nc1cccc(C)n1)S(=O)(=O)c1ccc(C)cc1 |  | > 200 | 66.1 µM |
| CCCCCCN(CCCCCC)C(=O)Cc1c2n(c3ccccc13)Cc1ccccc1-2 |  | > 6.31 | > 6.31 µM |
| CC1(C)C2CCC3(C2)CS(=O)(=O)N2OC231 (stereo not drawn) |  | > 219 | 120 µM |
| Cc1cc(=NCCCN(C)C)c2ccc3c(ccc4c(=NCCCN(C)C)cc(C)n(O)c43)c2n1O |  | > 200 | 10.2 µM |
| COC(=O)C12C=CC(C1)n1c(=O)n(-c3ccccc3)c(=O)n12 (stereo not drawn) |  | > 295 | 275 µM |
| O=S(=O)(O)c1cccc2c1CN1CCCCC1C2 (stereo not drawn) |  | > 200 | > 200 µM |
| CC(=O)O[C@H]1[C@@H]2CC(C)(C)CC2=C(C=O)C2(C=O)CC12C (stereo partly drawn) |  | > 200 | 13.5 µM |
| Cc1cnc([C@H]2CCC3[C@@H]4CC=C5C[C@@H](O)CC[C@]5(C)C4CC[C@@]32C)s1 (stereo partly drawn) |  | > 67.6 | > 67.6 µM |
| CCOC(=O)/C=C(/OCC)[C@@H]1C(C(=O)c2ccc(Cl)cc2)[C@H]1/C(=C\C(=O)OCC)OCC (stereo partly drawn) |  | > 200 | 17.4 µM |
| COC(=O)c1cc2c(cc1CC(Cc1ccc3c(c1)CCC3)C(=O)OC)CCC2 (stereo not drawn) |  | > 200 | 126 µM |
| CCCCCCCSc1nc2c(C(=O)OCC)ncn2c2ccccc12 |  | > 19.5 | > 19.5 µM |

| SMILES | outcome | EC50 [µM] | IC50 |
| --- | --- | --- | --- |
| COc1cc2c(cc1OCc1ccccc1)C=CN(C(=O)c1ccccc1)C2C#N (stereo not drawn) | inactive |  |  |
| COc1ccc(CCN(C)CCCC2(C#N)c3ccccc3-c3ccccc32)cc1OC |  | > 60.3 | 47.9 µM |
| CC1=C(C(=O)CC(=O)C(=O)NC2C3CC4CC(C3)CC2C4)Sc2ccccc2N1 (stereo not drawn) |  | > 9.12 | > 9.12 µM |
| CC(=O)[O-].O=C([N-]/N=C\c1ccsc1)c1ccncc1.[Ni+2].[OH3+].c1cnc2c(c1)ccc1cccnc12 |  | > 200 | 47.9 µM |
| COc1ccccc1NC(=O)CC(=O)N1N=C(N2c3ccccc3Sc3ccccc32)CC1c1ccccc1 (stereo not drawn) |  | > 200 | > 200 µM |
| CCOC(=O)C(NC(=O)CC)(Nc1ccc(S(=O)(=O)Nc2ncccn2)cc1)C(F)(F)F (stereo not drawn) |  | > 200 | > 200 µM |
| O=C(CC(=O)CC(O)(C(F)(F)F)C(F)(F)F)CC(O)(C(F)(F)F)C(F)(F)F |  | > 200 | 10.5 µM |
| Nc1cc(=O)[nH]c(N)n1 | inactive |  |  |
| C=CCSS(=O)CC=C (stereo not drawn) | inactive |  |  |
| COC(=O)N1C2c3ccccc3C(c3ccccc32)N1C(=O)OC |  | > 200 | > 200 µM |
| NC(CCOCCP(=O)(O)CCOCCC(N)C(=O)O)C(=O)O (stereo not drawn) |  | > 200 | > 200 µM |
| COC(=O)c1ccc(CSc2ccccc2)cc1 |  | > 28.2 | > 28.2 µM |
| COCOC1/C=C/CCCCC2=C(C)C=C(C1)O2 (stereo not drawn) |  | > 141 | 132 µM |
| CC(=O)OCCC(O[Si](c1ccccc1)(c1ccccc1)C(C)(C)C)C(C)(C)O (stereo not drawn) | inactive |  |  |
| N#Cc1c2ccc([N+](=O)[O-])cc2c(=O)n2c1sc1ccccc12 |  | > 200 | 10.7 µM |
| CCCCCCCCCCC(c1ccc(O)c(C(=O)O)c1)c1ccc(O)c(C(=O)O)c1 |  | > 447 | 107 µM |
| COc1ccc(C2=[S+]C(c3ccccc3)(c3ccccc3)c3ccccc32)cc1 | inactive |  |  |
| O=c1[nH]c(N/N=C\C(O)C(O)C(O)CO)nc2ccccc12 (stereo not drawn) |  | > 200 | > 200 µM and 97.7 µM |
| O=c1[nH]c2ncsc2c(=O)n1O |  | > 200 | 5.01 µM |
